The term IC50 denotes the midpoint of a concentration-inhibition curve.

Data set [1] has as its system ACAT2. The settings on record: cited from earlier work.
Data set [2] has as its system blood myeloid cells. Kind of data set: Blood myeloid cells (CD11b+Gr1+) after 5-FU injection, flow cytometry. The data set is classed as in vivo, mouse. The settings on record: 150 mg/kg single injection, six days post-injection. As to the method:
It also had shown previously that global Acat1^−/− induces leukocytosis (Huang et al. 2013. Arterioscl. Thromb. Vasc. Biol. 33:2081-2087). Therefore, experiments were performed to compare the hematopoietic recovery of wild-type, global Acat1^−/−, and Acat1^−M/−M mice after injection of the myelo-suppressive agent 5-fluorouracil (5-FU; 150 mg/kg) (Lindner et al. 1960. Cancer Res. 20:497-502). Mice from all three genotypes (7-9 weeks of age) were administered a single 5-FU injection. After injection, blood myeloid cells (CD11b+Gr1+) isolated from these mice were monitored by flow cytometry. […] Six days post-injection, almost all of the myeloid cells in wild-type, Acat1^−/− and Acat1^−M/−M mice were depleted by 5-FU.

The subject of data set [3] is ACAT1. The settings on record: cited from earlier work.
Data set [4] has as its target T1, hACAT-2 (Homo sapiens, UniProt O75908).
T1 sequence (O75908 1-522): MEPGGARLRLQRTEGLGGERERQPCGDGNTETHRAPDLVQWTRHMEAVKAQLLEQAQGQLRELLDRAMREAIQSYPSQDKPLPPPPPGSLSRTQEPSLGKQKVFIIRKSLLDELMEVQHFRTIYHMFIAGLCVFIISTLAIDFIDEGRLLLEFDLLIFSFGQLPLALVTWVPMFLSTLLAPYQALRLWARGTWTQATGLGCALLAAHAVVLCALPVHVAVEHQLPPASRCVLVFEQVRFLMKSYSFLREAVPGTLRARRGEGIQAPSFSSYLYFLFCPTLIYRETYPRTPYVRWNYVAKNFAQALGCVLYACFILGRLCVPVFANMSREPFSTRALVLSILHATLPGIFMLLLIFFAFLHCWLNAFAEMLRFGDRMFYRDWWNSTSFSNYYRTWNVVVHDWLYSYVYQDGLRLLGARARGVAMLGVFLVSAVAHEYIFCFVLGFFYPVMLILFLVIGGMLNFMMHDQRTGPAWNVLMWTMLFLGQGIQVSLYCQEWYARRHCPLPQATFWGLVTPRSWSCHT
The settings on record: cited from earlier work.

Data set [5] concerns mouse ACAT1. Description: ACAT1 protein by western blot in transfected NIH-3T3 mouse fibroblasts. Format: cell-based. The settings on record: NIH-3T3, rAAV vector transfection, 48 hours, GFP-positive cells. From the text: NIH-3T3 mouse fibroblasts were transiently transfected with one of several rAAV vectors encoding EmGFP and microRNA (miR) #52, #53, #54 or #55. Forty-eight hours post-transfection, GFP-positive cells were harvested by FACS. GFP-positive cells were washed then lysed in 10% SDS and syringe homogenized. Twenty microgram of protein per sample was subjected to SDS-PAGE. After western blot analysis, bands were quantified with ImageJ. ACAT1 intensity was normalized to GAPDH as a loading control and expressed as relative intensity.
Four different siRNA molecules (#52-#55; Table 3) targeting the mouse Acat1 gene were inserted into an endogenous mouse microRNA (miR) scaffold using Invitrogen's RNAi design tool. The artificial miRs were ligated into the mammalian expression vector pcDNA6.2-GW/EmGFP-miR. […] The miRs were delivered to the cells using a standard cDNA transfection protocol.
For orientation: A western blot detects proteins with antibodies after separation by electrophoresis.

Data set [6] concerns cholesteryl ester synthesis in peritoneal macrophages. Description: 3H-oleate incorporation into cholesteryl esters in peritoneal macrophages. Format: cell-based, mouse. The settings on record: 5 μM, 16 hours, agLDL, macrophages from wild-type or LyzCre+/+ mice. The protocol:
Peritoneal macrophages were isolated as previously described (Sakashita et al. 2010. J. Lipid Res. 51:1263-1272), four days after injecting 1 ml of thioglycolate (TG) (3% wt/vol; Sigma Chemical Co.). Peritoneal leukocytes were isolated and incubated in 6-well culture dishes with 2 ml/well DMEM medium with 10% FBS at 37° C. for two hours. After washing with PBS two times, the firmly attached macrophages were used to measure ACAT1 mRNA and protein level.
Experiments were then performed to confirm that ACAT1 was specifically deleted in macrophages of the Acat1^−M/−M mouse. Peritoneal macrophages were isolated from Acat1^−M/−M and Acat1+^M/+M mice four days after thioglycolate injection. The cells were incubated with aggregated LDL (agLDL), an agent known to provide large amount of cholesterol to macrophages (Khoo et al. 1988. Arteriosclerosis 8:348-358), with or without an ACAT inhibitor at a saturating concentration (Compound F12511; at 5 μM) (Chang et al. 2000. J. Biol. Chem. 275:28083-28092), for 16 hours, followed by ^3H-oleate incorporation to measure the biosynthesis of labeled cholesteryl esters. […] Next, ACAT1 mRNA and protein content were measured in wild-type and Acat1^−M/−M macrophages. […] In wild-type mice, ACAT1 is abundantly expressed in the adrenal glands.

In the case of `CC(C)c1cccc(C(C)C)c1NC(=O)CC(=O)C(Cc1ccccc1)Cc1ccc(OC(=O)CCCCCCN2CCCCCC2=O)cc1` (stereo not shown) [Compound 1C], the IC50 in data set [1] is 0.53 µM.
With `O=c1[nH]cc(F)c(=O)[nH]1` [5-FU, 5-fluorouracil], the “depletion of blood myeloid cells” value in data set [2] is reported as “almost all”.
Regarding `CCCCCCCCCNc1cc(-c2ccccc2)nn1-c1ccccc1` [compound 16], the IC50 in data set [1] is 97 µM.
Regarding `CCOC(=O)OC(=O)OCC` [diethyl pyrocarbonate], in data set [3], the IC50 is 44 µM and the “greater activity on ACAT1 compared to ACAT-2” value is on record as 4 fold. For the same molecule, the IC50 in data set [1] is 170 µM.
For `CC(C)c1cccc(C(C)C)c1NC(=O)CC(=O)C(Cc1ccccc1)Cc1ccc(O)cc1` (stereo not shown) [Compound 1B], in data set [1], the IC50 was 1.5 µM.
On to `CCCCCCCCC(=O)Nc1cc(-c2ccccc2)nn1-c1ccccc1` [compound 14], for which the IC50 in data set [1] was 75 µM.
In the case of saucerneol B, the IC50 in data set [4] is 124 µM.
With `CCCCCCCC(=O)Nc1ccccc1-c1ccccc1` [compound 1], the IC50 in data set [1] is 230 µM.
Regarding “miR Negative Control: negative control miR 5′-TACTGCGCGTGGAGACG-3′ (SEQ ID NO:17), matches no known vertebrate gene (chemistry not given here)”, the “Relative Intensity (ACAT1 normalized to GAPDH)” value in data set [5] is on record as 1.02.
Consider `CCCCCCCC(=O)Nc1cc(-c2ccccc2)nn1-c1ccccc1` [compound 13], for which the IC50 in data set [1] was 53 µM.
For the molecule `CCCCCCCCCCCCS[C@H](C(=O)Nc1cc(C)c(O)c(C)c1C)c1ccccc1` [Eflucimibe (F12511)], the “cholesteryl ester synthesis rate” value in data set [6] is given as “drastically reduced”. Besides, in data set [1], the IC50 is 0.11 µM.
For `CCCCCCCCC(=O)Nc1ccccc1-c1ccccc1` [compound 2], the IC50 in data set [1] was 414 µM.
As for `COc1ccc([C@@H](O)[C@@H](C)Oc2ccc([C@H]3O[C@H](c4ccc(O[C@H](C)[C@H](O)c5ccc6c(c5)OCO6)c(OC)c4)[C@H](C)[C@H]3C)cc2OC)cc1OC` [manassantin B], in data set [4] (at 1 mM), the “inhibition of hACAT-2” value was 32%.

The record behind these values is patent US9856478B2, “Method for selectively inhibiting ACAT1 in the treatment of obesity, metabolic syndrome, and atherosclerosis” (Trustees of Dartmouth College, priority 2013, dated 2018).
